Reference: ChEMBL document CHEMBL3596139, “N-Arylalkylbenzo[d]thiazole-2-carboxamides as anti-mycobacterial agents: design, new methods of synthesis and biological evaluation” (Medchemcomm, 2014)
In brackets after ≈: the same amount, converted by molar mass.

Key:
[1] = tested on: Mycobacterium tuberculosis; assay: Antimycobacterial activity against Mycobacterium tuberculosis H37Rv ATCC 27294 after 28 days by two-fold serial dilution method; type: functional; settings: H37Rv ATCC 27294, 672 h
[2] = Cytotoxicity against HEK293T cells assessed as inhibition of cell viability at 50 ug/ml after 72 hrs by MTT assay relative to control; type: cell-based, HEK-293T; settings: human, read-out: INH
[3] = Therapeutic index, ratio of compound cytotoxic activity for HEK293T cells to antimycobacterial activity against Mycobacterium tuberculosis H37Rv ATCC 27294; type: cell-based, HEK-293T; settings: human, read-out: TI

SMILES	MIC99 [1] [µg/mL]	cytotoxicity at 72 h, 50 ug/ml [2] [%]	selectivity ratio [3]
O=C(NCc1ccc(F)c(F)c1)c1nc2ccccc2s1	25 (≈ 82.2 µM)		
O=C(NCc1ccc(C(F)(F)F)cc1)c1nc2ccccc2s1	12.5 (≈ 37.2 µM)	36.7	
O=C(NCc1cccc(Cl)c1)c1nc2ccccc2s1	50 (≈ 165 µM)		
COc1ccc(CNC(=O)c2nc3cc(Cl)ccc3s2)cc1OC	6.25 (≈ 17.2 µM)	36.1	
O=C(NCc1cc(F)ccc1F)c1nc2ccccc2s1	6.25 (≈ 20.5 µM)	52.1	
O=C(NCc1ccc(Cl)cc1)c1nc2cc(Cl)ccc2s1	25 (≈ 74.1 µM)		
Nc1ccc(CCNC(=O)c2nc3cc(Cl)ccc3s2)cc1	1.56 (≈ 4.7 µM)	25.9	
O=C(NCc1ccc(F)cc1)c1nc2cc(Cl)ccc2s1	25 (≈ 77.9 µM)		
NC(=O)c1cnccn1 [PYRAZINAMIDE]	6.25 (≈ 50.8 µM)		
Cc1ccc(CNC(=O)c2nc3ccccc3s2)cc1	50 (≈ 177 µM)		
COc1ccc(CNC(=O)c2nc3ccccc3s2)cc1O	25 (≈ 79.5 µM)		
O=C(NCc1ccc([N+](=O)[O-])cc1)c1nc2ccccc2s1	12.5 (≈ 39.9 µM)	38.1	
Nc1ccc(CCNC(=O)c2nc3ccccc3s2)cc1	25 (≈ 84.1 µM)		
O=C(NCCc1ccccc1)c1nc2ccccc2s1	3.12 (≈ 11.1 µM)	22	
CC[C@@H](CO)NCCN[C@@H](CC)CO [ETHAMBUTOL]	1.56 (≈ 7.64 µM)		
O=C(NCc1cccc(F)c1)c1nc2ccccc2s1	6.25 (≈ 21.8 µM)	44.6	
COc1ccc(CNC(=O)c2nc3ccccc3s2)cc1	25 (≈ 83.8 µM)		
COc1ccc(CCNC(=O)c2nc3ccccc3s2)cc1OC	25 (≈ 73 µM)		
O=C(NCc1ccc(F)cc1F)c1nc2ccccc2s1	25 (≈ 82.2 µM)		
O=C(NCc1ccc(Cl)cc1)c1nc2ccccc2s1	50 (≈ 165 µM)		
O=C(NCc1ccccc1Cl)c1nc2ccccc2s1	6.25 (≈ 20.6 µM)	35.6	
O=C(NCc1ccccc1)c1nc2ccccc2s1	3.12 (≈ 11.6 µM)	41.2	
O=C(NCc1ccc(F)cc1)c1nc2ccccc2s1	6.25 (≈ 21.8 µM)	50.3	

SMILES	MIC99 [1] [µg/mL]	cytotoxicity at 72 h, 50 ug/ml [2] [%]	selectivity ratio [3]
CO[C@H]1/C=C/O[C@@]2(C)Oc3c(C)c(O)c4c(O)c(c(/C=N/N5CCN(C)CC5)c(O)c4c3C2=O)NC(=O)/C(C)=C\C=C\[C@H](C)[C@H](O)[C@@H](C)[C@@H](O)[C@@H](C)[C@H](OC(C)=O)[C@@H]1C [RIFAMPIN]	0.197 (≈ 0.239 µM)		
Cc1ccccc1CNC(=O)c1nc2ccccc2s1	12.5 (≈ 44.3 µM)	42.6	
N#Cc1ccc(CNC(=O)c2nc3ccccc3s2)cc1	12.5 (≈ 42.6 µM)	36	
O=C(NCc1ccc2c(c1)OCO2)c1nc2ccccc2s1	6.25 (≈ 20 µM)	16.1	
COc1ccccc1CNC(=O)c1nc2ccccc2s1	50 (≈ 168 µM)		
O=C(NCc1ccccc1Cl)c1nc2cc(Cl)ccc2s1	12.5 (≈ 37.1 µM)	36	
COc1ccccc1CNC(=O)c1nc2cc(Cl)ccc2s1	12.5 (≈ 37.6 µM)	38.9	
O=C(NCc1ccccc1F)c1nc2ccccc2s1	25 (≈ 87.3 µM)		
CC(C)(C)c1ccc(CNC(=O)c2nc3ccccc3s2)cc1	50 (≈ 154 µM)		
NNC(=O)c1ccncc1 [ISONIAZID]	0.098 (≈ 0.715 µM)		
O=C(NCc1ccc(Cl)cc1Cl)c1nc2ccccc2s1	50 (≈ 148 µM)		
O=C(NCc1ccccc1)c1nc2cc(C(F)(F)F)ccc2s1	6.25 (≈ 18.6 µM)	40.1	
COc1ccc(CCNC(=O)c2nc3cc(Cl)ccc3s2)cc1OC	12.5 (≈ 33.2 µM)	30.9	
O=C(NCc1ccc2c(c1)OCO2)c1nc2cc(Cl)ccc2s1	25 (≈ 72.1 µM)		
Nc1ccc(CCNC(=O)c2nc3cc(C(F)(F)F)ccc3s2)cc1	50 (≈ 137 µM)		
COc1ccc(CCNC(=O)c2nc3cc(C(F)(F)F)ccc3s2)cc1OC	25 (≈ 60.9 µM)		
COc1ccc(CNC(=O)c2nc3ccccc3s2)c(OC)c1	50 (≈ 152 µM)		
O=C(NCc1cc(F)ccc1F)c1nc2cc(Cl)ccc2s1	0.78 (≈ 2.3 µM)	32.2	> 64
O=C(NCc1ccccc1)c1nc2cc(Cl)ccc2s1	6.25 (≈ 20.6 µM)	40.1	
O=C(NCc1ccc(F)cc1)c1nc2cc(C(F)(F)F)ccc2s1	12.5 (≈ 35.3 µM)	38.7	
COc1ccc(CNC(=O)c2nc3ccccc3s2)cc1OC	12.5 (≈ 38.1 µM)	19.1	
O=C(NCc1cccc(Cl)c1)c1nc2cc(Cl)ccc2s1	25 (≈ 74.1 µM)		
